Reference: publication PMC9585589 (ACS Chemical Neuroscience, 2022)
Read-outs that look alike come from different tables or passages of the source.

Biological target: human CB1 receptor (Homo sapiens, UniProt P21554)
Assay: biochemical
Assay type: binding
Parameters: purchased Merck HTS019M; host or cells: Chem-1 cells
Text: Compounds selected for the in vitro binding assay from the first iteration of VS were purchased via MolPort, SIA, Riga, Latvia and Biopurify Phytochemicals Ltd., Chengdu, China. Compounds from the second iteration were purchased from MolPort, SIA, Riga, Latvia and Chemspace, SIA, Riga, Latvia (Supporting Information S3). […] Membranes from cells overexpressing the human CB1 receptor (ChemiScreen CB1 Cannabinoid Receptor Membrane Preparation, cat. no. HTS019M) as well as MgCl2, CaCl2, Trizma Base, NaCl, polyethylenimine (PEI) and dimethyl sulfoxide (DMSO) were purchased from Merck (USA). Bovine serum albumin (BSA) was obtained from Pol-Aura (Poland).
Compounds were dissolved in 50% DMSO and added to the reaction mixture at 10 concentrations equally spaced on a log scale (10^–10 to 10^–4.5 M). The final DMSO concentration was 5%. […] The reaction mixture (500 μL) was incubated for 1.5 h at 30°C . Before harvesting, Whatman GF/B Filter Paper (Brandel, USA) was presoaked with 0.33% PEI buffer for 30 min. and then washed with 2 ml of 50 mM Tris-HCl buffer (pH = 7.4) and 0.5% BSA to minimize non-specific binding. The reaction was terminated by depositing the samples onto GF/B filter paper with the Brandel M-24 Cell Harvester (Brandel, USA). Samples were then rapidly washed 3 times with 2 ml of ice-cold wash buffer (50 mM Tris-HCl pH 7.4, 500 mM NaCl) to separate the bound radioligand from free. Filters were then air-dried for 1 h at 60°C . After drying, filter discs were placed on a flexible 24-well plate and 500 μL of EcoScint-20 scintillant was added to each well. Plates were counted (2 min. per well) in a Trilux MicroBeta^2 2450 scintillation counter (Perkin Elmer, USA). Data were analyzed with GraphPad Prism 5.0 software.[89]

[1] = [3H]CP-55,940 displacement, membranes of Chem-1 cells expressing human CB1, read-out: pKi ± SEM (converted)
[2] = [3H]CP-55,940 displacement, membranes of Chem-1 cells expressing human CB1

human CB1 receptor, sequence (P21554 whole entry): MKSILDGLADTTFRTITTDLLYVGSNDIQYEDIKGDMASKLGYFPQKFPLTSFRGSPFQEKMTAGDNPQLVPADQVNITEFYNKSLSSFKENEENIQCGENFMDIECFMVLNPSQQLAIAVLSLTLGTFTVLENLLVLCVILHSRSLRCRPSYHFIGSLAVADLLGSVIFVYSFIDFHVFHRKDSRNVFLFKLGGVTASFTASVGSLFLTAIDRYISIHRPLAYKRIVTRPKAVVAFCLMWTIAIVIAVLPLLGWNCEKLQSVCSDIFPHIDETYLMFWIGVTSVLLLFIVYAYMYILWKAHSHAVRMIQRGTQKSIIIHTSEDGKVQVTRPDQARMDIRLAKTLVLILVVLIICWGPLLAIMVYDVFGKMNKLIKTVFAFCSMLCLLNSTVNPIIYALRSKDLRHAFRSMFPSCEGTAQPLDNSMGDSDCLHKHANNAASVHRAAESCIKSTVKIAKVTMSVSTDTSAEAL

Row | Structure (SMILES) | Ki (μM, 95% CI) | pKi ± SEM [2] | other results
1 | CCCSc1nc(N[C@@H]2C[C@H]2c2ccc(F)c(F)c2)c2nnn([C@@H]3C[C@H](OCCO)[C@@H](O)[C@H]3O)c2n1 [Compound 8, Ticagrelor] |  |  | Ki [1]: 36.3 µM
2 | COc1ccc(CCNC(=O)c2[nH]c3ccccc3c2NC(=O)c2cccc(C)c2)cc1OC [Compound 28] | no activity | no activity | 
3 | COc1cc2c(cc1OC)CN(C(=O)NC(CCSC)C(=O)NC1CCCc3ccccc31)CC2 (racemic) [Compound 39] |  | 4.40 ± 0.07 | Ki (read-out: Ki (μM, 95% CI)): 40 µM
4 | COc1cc(C2Oc3cc([C@H]4Oc5cc(O)cc(O)c5C(=O)[C@@H]4O)ccc3OC2CO)ccc1O (some centres unmarked) [Compound 20, Silybin] |  |  | Ki (Ki (μM, 95% CI)): 165 µM
5 | CC(C)=CCC/C(C)=C/Cc1cc(C2CC(=O)c3c(O)cc(O)cc3O2)c(O)cc1O (centres unmarked) [Compound 24, Kuwanon E] |  |  | Ki [1]: 30.9 µM
6 | O=c1[nH]c2ccccc2n1CCN1CCN(c2cccc(C(F)(F)F)c2)CC1 [Compound 2, Flibanserin] |  |  | Ki (Ki (μM, 95% CI)): 109 µM
7 | CC(C)=CCC[C@](C)(O)[C@H]1CC[C@]2(C)[C@@H]1[C@H](O)C[C@@H]1[C@@]3(C)CC[C@H](O)C(C)(C)[C@@H]3[C@@H](O)C[C@]12C [Compound 10, (20S)-Protopanaxatriol] | no activity | no activity | 
8 | C[C@@]12C[C@@]3(O)O[C@@H](O1)[C@]1(COC(=O)c4ccccc4)[C@H]3C[C@@]12O[C@@H]1O[C@H](COC(=O)c2ccccc2)[C@@H](O)[C@H](O)[C@H]1O [Compound 12, Benzoylpaeoniflorin] |  |  | Ki (Ki (μM, 95% CI)): 179 µM
9 | COc1ccccc1Oc1c(NS(=O)(=O)c2ccc(C(C)(C)C)cc2)nc(-c2ncccn2)nc1OCCO [Compound 1, Bosentan] |  |  | Ki (Ki (μM, 95% CI)): 259 µM
10 | COc1ccc(-c2nc3ccc(C(=O)NCc4ccc(Cl)cc4)cc3nc2-c2ccc(OC)cc2)cc1 [Compound 37] | no activity | no activity | 
11 | CC(C)COc1ccc(CNC(=O)N(Cc2ccc(F)cc2)C2CCN(C)CC2)cc1 [Compound 6, Pimavanserin] |  |  | Ki [1]: 33.9 µM
12 | CC(C)=CCCC1(C)C=Cc2c(ccc(C3CC(=O)c4c(O)cc(O)cc4O3)c2O)O1 (centres unmarked) [Compound 26, Sanggenon N] |  | 4.71 ± 0.05 | Ki (read-out: Ki (μM, 95% CI)): 19 µM
13 | CCCS(=O)(=O)Nc1ccc(F)c(C(=O)c2c[nH]c3ncc(-c4ccc(Cl)cc4)cc23)c1F [Compound 29, Vemurafenib] | no activity | no activity | 
14 | O=C(NC[C@H]1CN(c2ccc(N3CCOCC3=O)cc2)C(=O)O1)c1ccc(Cl)s1 [Compound 7, Rivaroxaban] | no activity | no activity | 
15 | O=c1cc(-c2ccc(O)cc2)oc2c(C3O[C@H](CO)[C@@H](O[C@@H]4O[C@H](CO)[C@@H](O)[C@H](O)[C@H]4O)[C@H](O)[C@H]3O)c(O)cc(O)c12 (some centres unmarked) [Compound 11, 4”-O-Glucosylvitexin] | no activity | no activity | 
16 | COc1cc2c(=O)c3c(O)c([C@@H]4O[C@H](CO[C@@H]5OC[C@](O)(CO)[C@H]5O)[C@@H](O)[C@H](O)[C@H]4O)c(O)cc3oc2cc1O [Compound 18, Polygalaxanthone III] | no activity | no activity | 
17 | COc1cc2c(cc1OC)[C@@H](Cc1ccc(O)c(Oc3cc4c(cc3OC)CCN(C)[C@@H]4Cc3ccc(O)cc3)c1)N(C)CC2 [Compound 16, Liensinine] | no activity | no activity | 
18 | O=C1[C@@H]2[C@H]3CC[C@H](C3)[C@@H]2C(=O)N1C[C@@H]1CCCC[C@H]1CN1CCN(c2nsc3ccccc23)CC1 [Compound 4, Lurasidone] |  |  | Ki (Ki (μM, 95% CI)): 39.8 µM

Row | Structure (SMILES) | Ki (μM, 95% CI) | pKi ± SEM [2] | other results
19 | COc1cc(C(C)=O)ccc1OCCCN1CCC(c2noc3cc(F)ccc23)CC1 [Compound 3, Iloperidone] |  |  | Ki (Ki (μM, 95% CI)): 87.9 µM; Ki [1]: 89.1 µM
20 | O=C(/C=C/c1ccc(O)cc1)OC[C@H]1O[C@@H](Oc2c(-c3ccc(O)cc3)oc3cc(O)cc(O)c3c2=O)[C@H](O)[C@@H](O)[C@@H]1O [Compound 22, Tiliroside] |  |  | Ki (Ki (μM, 95% CI)): 47.2 µM
21 | Cc1nc2c([nH]1)-c1ccccc1N(C(=O)c1ccc(NC(=O)c3ccccc3-c3ccccc3)cc1)CC2 [Compound 45, Conivaptan] | no activity | no activity | 
22 | COc1ccc(-n2c(=O)c3ccc(C(=O)NCCc4ccccc4)cc3n(Cc3ccccc3F)c2=O)cc1 [Compound 40] | no activity | no activity | 
23 | COc1ccc(-c2nc(C(=O)NCCc3ccc(Cl)cc3Cl)cc3c2[nH]c2ccccc23)cc1OC [Compound 35] |  | 4.35 ± 0.09 | Ki (read-out: Ki (μM, 95% CI)): 44 µM
24 | CCCCNC(=O)[C@@H]1CN(C(=O)c2cccc(OC)c2)C[C@H]1c1ccc(OC)cc1OC (racemic) [Compound 42] | no activity | no activity | 
25 | CC(C)(O)[C@@H]1CC[C@](C)([C@H]2[C@@H](O)C[C@@]3(C)[C@@H]4C[C@H](O)[C@H]5C(C)(C)[C@@H](O)CC[C@@]56C[C@@]46CC[C@]23C)O1 [Compound 14, Cyclogalegenol] |  | 3.76 ± 0.20 | Ki (read-out: Ki (μM, 95% CI)): 175 µM
26 | O=C(NCCc1ccc(F)cc1)c1cc2c([nH]c3ccccc32)c(-c2ccc(F)cc2)n1 [Compound 23] | no activity | no activity | 
27 | O=c1c(O)cc([C@H]2Oc3cc(O)cc(O)c3C[C@H]2O)cc2c([C@H]3Oc4cc(O)cc(O)c4C[C@H]3O)cc(O)c(O)c12 [Compound 21, Theaflavin] | no activity | no activity | 
28 | COC(=O)C1=C(C)NC(C)=C(C(=O)OCCN(C)Cc2ccccc2)C1c1cccc([N+](=O)[O-])c1 (centres unmarked) [Compound 5, Nicardipine] | no activity | no activity | 
29 | O=C(O[C@@H]1O[C@@H]2COC(=O)c3cc(O)c(O)c(O)c3-c3c(cc(O)c(O)c3O)C(=O)O[C@H]([C@H]1O)[C@@H]2O)c1cc(O)c(O)c(O)c1 [Compound 13, Corilagin] |  |  | Ki (Ki (μM, 95% CI)): 48 µM
30 | COc1ccc(-c2cc(=O)c3c(O)cc4c(c3o2)C(c2cccc(Cl)c2F)CC(=O)O4)cc1O (racemic) [Compound 31] | no activity | no activity | 
31 | O=C1NCCN1CCN1CCC(c2cn(-c3ccc(F)cc3)c3ccc(Cl)cc23)CC1 [Compound 44, Sertindole] |  |  | Ki [1]: 41.7 µM
32 | OCC1=C[C@@H](O)[C@]2(O[C@@H]3O[C@H](CO)[C@@H](O)[C@H](O)[C@H]3O[C@@H]3O[C@H](CO)[C@@H](O)[C@H](O)[C@H]3O)C=CO[C@@H](O[C@@H]3O[C@H](CO)[C@@H](O)[C@H](O)[C@H]3O)[C@H]12 [Compound 19, Rehmannioside D] | no activity | no activity | 
33 | Cc1ccc(COc2ccc3c(C)c(CC(=O)N4CCC5(O)CCCCC5C4)c(=O)oc3c2C)cc1 (racemic) [Compound 27] | insoluble | insoluble | 
34 | Cc1c(O[C@H](C)C(=O)NC[C@@H](O)c2ccccc2)ccc2c(-c3ccccc3)cc(=O)oc12 (racemic) [Compound 25] |  | 4.86 ± 0.09 | Ki (read-out: Ki (μM, 95% CI)): 13.9 µM
35 | Cc1ccc(S(=O)(=O)NC(Cc2c[nH]c3ccccc23)C(=O)Oc2ccc3c4c(c(=O)oc3c2)CCC4)cc1 (racemic) [Compound 36] |  | 4.39 ± 0.09 | Ki (read-out: Ki (μM, 95% CI)): 41 µM
